Patent US20030022821A1, “Bioactive peptides” (priority 1998, published 2003)
Values after ≈ are worked out from the molar mass of the structure shown. Where two headings read alike, the source gives them in different places. Square brackets hold non-standard residues; d marks the D form. Ends that are not written are not given here. Peptide text beside a SMILES is read from it. * marks the point of attachment. Trp(2-Pmc) = Cc1c(C)c(S(=O)(=O)c2[nH]c3ccccc3c2C[C@H](N)C(=O)O)c(C)c2c1OC(C)(C)CC2; Bip = N[C@@H](Cc1ccc(-c2ccccc2)cc1)C(=O)O; Fmoc = O=C(OCC1c2ccccc2-c2ccccc21)*; Acm = CC(=O)NC*

Assays:
[1] = system: Meth A cells (murine sarcoma cell line); assay: Cytotoxicity on Meth A cells, MTT method
Protocol: Peptide solutions (0.1 ml) were added and the plates incubated at 37° C. for 30 minutes, 4 hours or 24 hours. The cytotoxicity was measured using the MTT method (Mosmann et al., J. Immunol. (1986) 136, 2348-2357).
Cells in the growth phase were harvested and washed in fresh medium and injected subcutaneously into the abdominal region of the mice.
The cytotoxic effect of the peptides on different murine and human tumor cells were measured using the MTT method (Mosmann et al., J. Immunol. (1986) 136, 2348-2357). MTT is a soluble tetrazolium salt yielding a yellow solution when prepared in media or salt solutions lacking phenol red. Dissolved MTT is converted to an insoluble purple formazan by cleavage of the tetrazolium ring by dehydrogenase enzymes. This water insoluble formazan can be solubilized using isopropanol or other solvents and the dissolved material is measured spectrophotometrically. The absorbance was measured as a function of concentration of converted dye.
Cells were maintained in […] medium containing 10% FBS, 1% L-glutamine and 0.1% penicillin and streptomycin. Cells to be used in the assay were grown to confluency, trypsinated and split to single cell suspension, counted and centrifuged at 1500 rpm for 10 min. […][…] of cell suspension was transferred to each well on a 96-well microtiter plate. The cells were stimulated by adding […] of various concentrations of peptides diluted with assay medium to each well. The final concentrations of peptide were for example: 5, 10, 20, 40, 60, 80, 100, and 200 mg/ml. […] As a negative control only medium was added to the cells, and as a positive control (100% killing) 1% triton X-100 was added. Following an incubation period of 4 h., 20 ml MTT dissolved in PBS at a concentration of 5 mg/ml was added to each well, and the plate was incubated further for 2 h. 130 ml of the supernatant were then removed and […] acid alcohol (0.04-0.1 N HCl in isopropanol) added to each well to dissolve the dark blue crystals. The plate was placed on a shaker for 1 h and read spectrophotometrically at 590 nm in a microtiterplate reader using the Softmaxâ program.

[2] = system: human red blood cells; assay: Hemolytic assay; assay type: cell-based; conditions: red cells of human
[3] = system: Staphylococcus aureus ATCC 25923; assay type: cell-based; conditions: ATCC 25923
How it was run: (§1)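 Microdilution MIC; 1% Bacto Peptone water; inoculum 2×10^6 CFU/ml, mid-log cells; triplicates; peptide levels verified by HPLC before and after addition to wells.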

[4] = system: Escherichia coli ATCC 25922; assay type: cell-based; conditions: ATCC 25922
How it was run: as §1

[5] = read-out: MethA IC 50, Table 7, peptide required to kill 50% of MethA cells

CSCC[C@H](NC(=O)[C@H](CCCNC(=N)N)NC(=O)[C@H](Cc1c[nH]c2ccccc12)NC(=O)[C@H](C)NC(=O)[C@H](Cc1c[nH]c2ccccc12)NC(=O)[C@H](CCCNC(=N)N)NC(=O)[C@H](CCCNC(=N)N)NC(=O)[C@H](C)NC(=O)[C@H](CCCCN)NC(=O)[C@H](Cc1ccc(-c2ccccc2)cc1)NC(=O)[C@H](Cc1c[nH]c2ccccc12)NC(=O)[C@H](C)NC(=O)[C@@H]1CCCN1)C(=O)N[C@@H](CCCCN)C(=O)N[C@@H](CCCCN)C(=O)N[C@@H](CC(C)C)C(=O)N[C@@H](C)C(=O)N[C@@H](C)C(=O)O [LFB1431A2, 6, 10, 17Bip4] (H-PAW[Bip]KARRWAWRMKKLAA-OH; N-terminus assumed)
EC50 ([1]; 4 h): 23.4 µM | EC50 [2]: 336 µM

CSCC[C@H](NC(=O)[C@H](CCCNC(=N)N)NC(=O)[C@H](Cc1c[nH]c2ccccc12)NC(=O)[C@H](C)NC(=O)[C@H](Cc1c[nH]c2ccccc12)NC(=O)[C@H](CCCNC(=N)N)NC(=O)[C@H](CCCNC(=N)N)NC(=O)[C@H](C)NC(=O)[C@H](CCCCN)NC(=O)[C@H](Cc1ccccc1)NC(=O)[C@H](Cc1c[nH]c2ccccc12)NC(=O)[C@H](C)NC(=O)[C@@H]1CCCN1)C(=O)N[C@@H](CCCCN)C(=O)N[C@@H](CCCCN)C(=O)N[C@@H](CC(C)C)C(=O)N[C@@H](C)C(=O)N[C@@H](C)C(=O)O [LFB 14-31 A2,6, 10, 17]
EC50 ([1]; 4 h): 165 µM | IC50 ([1]; 4 h): 165 µM | IC50 [1, 5]: 165 µM | MIC S. aureus [3]: 2.5 mg/L (≈ 1.1 µM) | MIC E. coli [4]: 20 mg/L (≈ 8.8 µM) | EC50 [2]: > 440 µM

CSCC[C@H](NC(=O)[C@H](CCCNC(=N)N)NC(=O)[C@H](Cc1c[nH]c2ccccc12)NC(=O)[C@H](C)NC(=O)[C@H](Cc1c[nH]c2ccccc12)NC(=O)[C@H](CCCNC(=N)N)NC(=O)[C@H](CCCNC(=N)N)NC(=O)OCC1c2ccccc2-c2ccccc21)C(=O)N[C@@H](CCCCN)C(=O)N[C@@H](CCCCN)C(=O)O [LFB 20-28 A4 FMOC] (Fmoc-RRWAWRMKK-OH)
MethA IC50 ([1]; 4 h): 120 mg/L

CSCC[C@H](NC(=O)[C@H](CCCNC(=N)N)NC(=O)[C@H](Cc1c[nH]c2ccccc12)NC(=O)[C@H](CCC(N)=O)NC(=O)[C@H](Cc1c[nH]c2ccccc12)NC(=O)[C@H](CCCNC(=N)N)NC(=O)[C@H](CCCNC(=N)N)NC(=O)OCC1c2ccccc2-c2ccccc21)C(=O)N[C@@H](CCCCN)C(=O)N[C@@H](CCCCN)C(=O)N[C@@H](CC(C)C)C(=O)O [LFB 20-29 FMOC] (Fmoc-RRWQWRMKKL-OH)
MethA IC50 ([1]; 4 h): 140 mg/L | MIC S. aureus [3]: 10 mg/L (≈ 5.85 µM) | MIC E. coli [4]: 5 mg/L (≈ 2.92 µM) | % Hemolysis 10 μg/ml [2]: 10.3% | % Hemolysis 100 μg/ml [2]: 28.2%

CSCC[C@H](NC(=O)[C@H](CCCNC(=N)N)NC(=O)[C@H](Cc1c[nH]c2ccccc12)NC(=O)[C@H](C)NC(=O)[C@H](Cc1c[nH]c2ccccc12)NC(=O)[C@H](CCCNC(=N)N)NC(=O)[C@H](CCCNC(=N)N)NC(=O)[C@H](CSCNC(C)=O)NC(=O)[C@H](CCCCN)NC(=O)[C@@H](N)Cc1ccccc1)C(=O)N[C@@H](CCCCN)C(=O)N[C@@H](CCCCN)C(=O)N[C@@H](CC(C)C)C(=O)NCC(=O)N[C@@H](C)C(=O)O [LFB A7] (H-FKC(Acm)RRWAWRMKKLGA-OH)
MethA IC50 ([1]; 4 h): 500 mg/L | MIC S. aureus [3]: 150 mg/L (≈ 74.7 µM) | MIC E. coli [4]: 30 mg/L (≈ 14.9 µM)

CSCC[C@H](NC(=O)[C@H](CCCNC(=N)N)NC(=O)[C@H](C)NC(=O)[C@H](CCC(N)=O)NC(=O)[C@H](Cc1c(S(=O)(=O)c2c(C)c(C)c3c(c2C)CCC(C)(C)O3)[nH]c2ccccc12)NC(=O)[C@H](CCCNC(=N)N)NC(=O)[C@H](CCCNC(=N)N)NC(=O)[C@H](CSCNC(C)=O)NC(=O)[C@H](CCCCN)NC(=O)[C@H](Cc1ccccc1)NC(=O)OCC1c2ccccc2-c2ccccc21)C(=O)N[C@@H](CCCCN)C(=O)N[C@@H](CCCCN)C(=O)N[C@@H](CC(C)C)C(=O)NCC(=O)N[C@@H](C)C(=O)O [LFB A8 FMOC PMC] (Fmoc-FKC(Acm)RR[Trp(2-Pmc)]QARMKKLGA-OH)
concentration killing Meth A tumor cells ([1]; after 4 hours incubation): 50 µg/mL | concentration killing Meth A tumor cells ([1]; after ½ hour incubation): higher than 100 μg/ml | % Hemolysis 10 μg/ml [2]: 6.75% | % Hemolysis 100 μg/ml [2]: 45.4%

CSCC[C@H](NC(=O)[C@H](CCCNC(=N)N)NC(=O)[C@H](C)NC(=O)[C@H](CCC(N)=O)NC(=O)[C@H](Cc1c[nH]c2ccccc12)NC(=O)[C@H](CCCNC(=N)N)NC(=O)[C@H](CCCNC(=N)N)NC(=O)[C@H](CSCNC(C)=O)NC(=O)[C@H](CCCCN)NC(=O)[C@H](Cc1ccccc1)NC(=O)OCC1c2ccccc2-c2ccccc21)C(=O)N[C@@H](CCCCN)C(=O)N[C@@H](CCCCN)C(=O)N[C@@H](CC(C)C)C(=O)NCC(=O)N[C@@H](C)C(=O)O [LFB A8 FMOC] (Fmoc-FKC(Acm)RRWQARMKKLGA-OH)
killing of Meth A cells ([1]; 250 μg/ml at ½ hour and 4 hours): killed most of the cells | MIC S. aureus [3]: 10 mg/L (≈ 4.6 µM) | MIC E. coli [4]: 60 mg/L (≈ 27.6 µM) | % Hemolysis 10 μg/ml [2]: 2.87% | % Hemolysis 100 μg/ml [2]: 7.79%

CSCC[C@H](NC(=O)[C@H](CCCNC(=N)N)NC(=O)[C@H](C)NC(=O)[C@H](CCC(N)=O)NC(=O)[C@H](Cc1c(S(=O)(=O)c2c(C)c(C)c3c(c2C)CCC(C)(C)O3)[nH]c2ccccc12)NC(=O)[C@H](CCCNC(=N)N)NC(=O)[C@H](CCCNC(=N)N)NC(=O)[C@H](CSCNC(C)=O)NC(=O)[C@H](CCCCN)NC(=O)[C@@H](N)Cc1ccccc1)C(=O)N[C@@H](CCCCN)C(=O)N[C@@H](CCCCN)C(=O)N[C@@H](CC(C)C)C(=O)NCC(=O)N[C@@H](C)C(=O)O [LFB A8 PMC] (H-FKC(Acm)RR[Trp(2-Pmc)]QARMKKLGA-OH)
MethA IC50 ([1]; 4 h): 275 mg/L | MIC S. aureus [3]: 17.5 mg/L (≈ 7.89 µM) | MIC E. coli [4]: 15 mg/L (≈ 6.77 µM)

CSCC[C@H](NC(=O)[C@H](CCCNC(=N)N)NC(=O)[C@H](C)NC(=O)[C@H](CCC(N)=O)NC(=O)[C@H](Cc1c[nH]c2ccccc12)NC(=O)[C@H](CCCNC(=N)N)NC(=O)[C@H](CCCNC(=N)N)NC(=O)[C@H](CSCNC(C)=O)NC(=O)[C@H](CCCCN)NC(=O)[C@@H](N)Cc1ccccc1)C(=O)N[C@@H](CCCCN)C(=O)N[C@@H](CCCCN)C(=O)N[C@@H](CC(C)C)C(=O)NCC(=O)N[C@@H](C)C(=O)O [LFB A8] (H-FKC(Acm)RRWQARMKKLGA-OH; N-terminus assumed)
MethA IC50 ([1]; 4 h): 500 mg/L | MIC S. aureus [3]: >200 mg/L | MIC E. coli [4]: >200 mg/L | % Hemolysis 10 μg/ml [2]: 2.8% | % Hemolysis 100 μg/ml [2]: 3.45%

CSCC[C@H](NC(=O)[C@H](CCCNC(=N)N)NC(=O)[C@H](Cc1c[nH]c2ccccc12)NC(=O)[C@H](CCC(N)=O)NC(=O)[C@H](Cc1c[nH]c2ccccc12)NC(=O)[C@H](CCCNC(=N)N)NC(=O)[C@H](CCCNC(=N)N)NC(=O)[C@H](CSCNC(C)=O)NC(=O)[C@H](CCCCN)NC(=O)[C@@H](N)Cc1ccccc1)C(=O)N[C@@H](CCCCN)C(=O)N[C@@H](CCCCN)C(=O)N[C@@H](CC(C)C)C(=O)N[C@@H](C)C(=O)N[C@@H](C)C(=O)O [LFB A14] (H-FKC(Acm)RRWQWRMKKLAA-OH)
MethA IC50 ([1]; 4 h): 500 mg/L | MIC S. aureus [3]: 160 mg/L (≈ 76.9 µM) | MIC E. coli [4]: 25 mg/L (≈ 12 µM)

H-FKARRWQWRMKKLGA-OH [LFB A3]
MethA IC50 ([1]; 4 h): 500 mg/L | MIC S. aureus [3]: 100 mg/L | MIC E. coli [4]: 25 mg/L

Linear LFB (17-41) modified with Pmc: linear LFB (17-41) modified with Pmc
cytotoxic effect on Meth A cells compared with another peptide [1]: slightly more effective than Pmc modified LFB 17-31

PAWFKARRWAWRMKK-OH [LFB 14-28 A2,6, 10]
IC50 ([1]; 4 h): > 248 µM | EC50 [2]: > 438 µM

PAWFKARRWAWRMKKL-OH [LFB 14-29 A2,6, 10]
IC50 ([1]; 4 h): > 235 µM | EC50 [2]: > 469 µM

PAWFKARRWAWRMKKLA-OH [LFB 14-30 A2,6, 10, 17]
IC50 ([1]; 4 h): > 227 µM | EC50 [2]: > 454 µM

PAWRKARRWARRMKKLAA-OH [LFB 14-31 A2,6, 10, 17R4, 11]
IC50 [1, 5]: 75.5 µM | EC50 [2]: > 444 µM
